# Data as given in paper PMC3667588 (Journal of pharmacological and toxicological methods, 2012).
# Where “and” joins values, the source holds several entries; their conditions need not be identical. Equal values may be shown once. Read-outs that look alike come from different tables or passages of the source.
# Experiments:
# [1] = test system: hiPSC-derived cardiomyocytes; test: KIC spontaneous calcium transients in hiPSC-derived cardiomyocytes; type: cell-based, human; conditions: for Effect on spontaneous calcium transient (in words): dose-response; for EC50 FWHM (in words) / EC50 Rise Time (in words) / EC50 Decay (in words) / EC50 T75-25 (in words): N.S., not significant vs vehicle by ANOVA/Dunnett
# KATP channel = conditions: TM-ec; ref Houjou, et al., 1996; cited from earlier work
# NRVMs [2] = test: KIC calcium transients in T3-treated NRVMs paced at 2 Hz; type: cell-based, rat; conditions: NRVMs after T3 treatment, 100 µM, 12 seconds recording
# hERG K^+ channel = conditions: PC-Xl; ref Hansen, et al., 2006; cited from earlier work
# L-type Ca^2+ channel = conditions: CR-mc; ref Ogawa, et al., 1992; cited from earlier work
# Na^+ channel = conditions: PC-Xl; ref Ramos & O'Leary, 2004; cited from earlier work
# NRVMs [3] = test: KIC Ca2+ transient analysis in neonatal rat ventricular myocytes; type: cell-based; conditions: for FWHM / T75-25 / TDecay / TRise: NRVMs treated three days with 100 nM T3, Ca2+ transient
# hiPSC-CMs = type: cell-based, human; conditions: for Effect on paced [Ca^2+]i transients at 1 µM / Effect on paced [Ca^2+]i transients at 10 µM: 1 Hz pacing; for Effect on paced [Ca^2+]i transients at 0.1 µM: 4 stimulations at 1 Hz
# hERG = conditions: cited from earlier work; for Reported EC50/IC50: PC-cc, et al.
# [4] = Homo sapiens, Cardiomyocyte, read-out: EC50 Decay
# [5] = Homo sapiens, Cardiomyocyte, read-out: EC50 FWHM
# [6] = Homo sapiens, Cardiomyocyte, read-out: EC50 Rise Time
# [7] = Homo sapiens, Cardiomyocyte, read-out: EC50 T75-25
# [8] = read-out: EC50 Decay, spontaneous calcium transients, hiPSC-CMs
# [9] = read-out: EC50 FWHM, spontaneous calcium transients, hiPSC-CMs
# [10] = read-out: EC50 Rise Time, spontaneous calcium transients, hiPSC-CMs
# [11] = read-out: EC50 T75-25, spontaneous calcium transients, hiPSC-CMs
# [12] = Average CTR minus average T3 (100 nM, three days)
compound,measurement,setting,value
CC1(C)Oc2ccc(C#N)cc2[C@@H](N2CCCC2=O)[C@@H]1O [Levcromakalim],EC50,[1]; [4],5280 nM
same,EC50,[1]; [5],9160 nM
same,EC50,[1]; [6],3720 nM
same,EC50,[1]; [7],3070 nM
same,Reported EC50/IC50,KATP channel,1.73 µM TM-ec
Cc1cccc(CCN2CCC(C(=O)c3ccc(NS(C)(=O)=O)cc3)CC2)n1 [E-4031],EC50,[1]; [8],45.7 nM
same,EC50,[1]; [9],44.1 nM
same,EC50,[1]; [10],38.6 nM
same,EC50,[1]; [11],82.2 nM
COc1ccc(CCN(C)CCCC(C#N)(c2ccc(OC)c(OC)c2)C(C)C)cc1OC (stereo not drawn) [Verapamil],EC50,[1]; [4],170 nM
same,EC50,[1]; [5],260 nM
same,EC50,[1]; [6],460 nM
same,EC50,[1]; [7],390 nM
same,Effect on spontaneous calcium transient (in words),[1]; hiPSC-CMs,dose-dependent reduction in the intensity and duration of the calcium transient
same,Effect on spontaneous calcium transient (in words),"[1]; hiPSC-CMs, listed as verapamil",completely blocked the Ca^2+ transient
C[C@@H]1CN(c2c(F)c(N)c3c(=O)c(C(=O)O)cn(C4CC4)c3c2F)C[C@H](C)N1 [sparfloxacin],Effect on paced calcium transients,NRVMs [2],highly asynchronous calcium transients
CN(CCOc1ccc(NS(C)(=O)=O)cc1)CCc1ccc(NS(C)(=O)=O)cc1 [Dofetilide],EC50,[1]; [4],0.75 nM
same,EC50,[1]; [7],5.87 nM
same,EC50 FWHM (in words),[1],N.S
same,EC50 Rise Time (in words),[1],N.S.
"O=C(Nc1cc(C(F)(F)F)ccc1O)Nc1cc(C(F)(F)F)ccc1O [NS1463, 1,3-Bis-(2-hydroxy-5-trifluoromethyl-phenyl)-urea]",Reported EC50/IC50,hERG K^+ channel,10.5µM PC-Xl
same,EC50,[1]; [4],2540 nM
same,EC50,[1]; [5],7000 nM
same,EC50,[1]; [6],3890 nM
same,EC50,[1]; [7],2330 nM
COC(=O)C1=C(C)NC(C)=C([N+](=O)[O-])C1c1ccccc1C(F)(F)F (stereo not drawn) [Bay K 8644],Reported EC50/IC50,L-type Ca^2+ channel,10–100 nM CR-mc
same,Effect on spontaneous calcium transient (in words),[1]; hiPSC-CMs,increased the transient amplitude and prolonged its duration
same,EC50,[1]; [8],6.38 nM
same,EC50,[1]; [9],11 nM
same,EC50,[1]; [10],1300 nM
same,EC50,[1]; [11],5.48 nM
O=C(NCC1CCCCN1)c1cc(OCC(F)(F)F)ccc1OCC(F)(F)F (stereo not drawn) [Flecainide],Reported EC50/IC50,Na^+ channel,7.4 µM PC-Xl
same,EC50,[1]; [4],1010 nM
same,EC50,[1]; [6],9670 nM
same,EC50,[1]; [7],1130 nM
same,EC50 FWHM (in words),[1],N.S.
"N[C@@H](Cc1cc(I)c(Oc2ccc(O)c(I)c2)c(I)c1)C(=O)O [T3, Triiodothyronine]","Difference in ms, FWHM",NRVMs [3]; [12],311 ms
same,"Difference in ms, T75-25",NRVMs [3]; [12],215 ms
same,"Difference in ms, TDecay",NRVMs [3]; [12],190 ms
same,"Difference in ms, TRise",NRVMs [3]; [12],119 ms
same,FWHM,NRVMs [3],567 ± 9 ms
same,T75-25,NRVMs [3],439 ± 44 ms
same,TDecay,NRVMs [3],462 ± 15 ms
same,TRise,NRVMs [3],104 ms and 104 ± 14 ms
same,FWHM,NRVMs [3]; listed as T3-1,567 ms
same,T75-25,NRVMs [3]; listed as T3-1,390 ms
same,TDecay,NRVMs [3]; listed as T3-1,447 ms
same,TRise,NRVMs [3]; listed as T3-1,120 ms
same,FWHM,NRVMs [3]; listed as T3-2,558 ms
same,T75-25,NRVMs [3]; listed as T3-2,450 ms
same,TDecay,NRVMs [3]; listed as T3-2,462 ms
same,TRise,NRVMs [3]; listed as T3-2,96 ms
same,FWHM,NRVMs [3]; listed as T3-3,576 ms
same,T75-25,NRVMs [3]; listed as T3-3,477 ms
same,TDecay,NRVMs [3]; listed as T3-3,477 ms
same,Reduction of FWHM,NRVMs [3]; T3 vs control NRVMs,35%
same,Reduction of T75-25,NRVMs [3]; T3 vs control NRVMs,33%
same,Reduction of TDecay,NRVMs [3]; T3 vs control NRVMs,29%
same,Reduction of TRise,NRVMs [3]; T3 vs control NRVMs,53%
CCOc1cc(N)c(Cl)cc1C(=O)NCC1CN(Cc2ccc(F)cc2)CCO1 (stereo not drawn) [Mosapride],Effect on paced [Ca^2+]i transients at 1 µM,hiPSC-CMs,no discernible differences
same,Effect on paced [Ca^2+]i transients at 10 µM,hiPSC-CMs,pattern similar to 0.1 µM cisapride
same,Effect on paced [Ca^2+]i transients at 0.1 µM,hiPSC-CMs,no discernible differences
same,Affinity for hERG relative to cisapride,"hERG; ref Toga, Kohmura, & Kawatsu, 2007",three orders of magnitude less affinity for hERG
same,EC50 Decay (in words),[1],N.S.
same,EC50 FWHM (in words),[1],N.S.
same,EC50 Rise Time (in words),[1],N.S.
same,EC50 T75-25 (in words),[1],N.S.
same,Effect on spontaneous calcium transient (in words),[1]; hiPSC-CMs,did not induce statistically significant changes
same,Effect on spontaneous calcium transient (in words),"[1]; hiPSC-CMs, listed as mosapride",minimal effect only at the highest concentrations
COc1cc(N)c(Cl)cc1C(=O)NC1CCN(CCCOc2ccc(F)cc2)CC1OC (stereo not drawn) [Cisapride],Effect on paced [Ca^2+]i transients at 1 µM,hiPSC-CMs,almost fused and the maxima were reduced to about half of the initial peak
same,Effect on paced [Ca^2+]i transients at 10 µM,hiPSC-CMs,narrowed and follow-on maxima were decreased
same,Effect on paced [Ca^2+]i transients at 0.1 µM,hiPSC-CMs,anomalous [Ca^2+]i kinetics
same,Reported EC50/IC50,"hERG; ref Mohammad, 1997, Potet, 2001, Toga, 2007",6.5–240 nM PC-cc
same,EC50,[1]; [4],147 nM
same,EC50,[1]; [5],149 nM
same,EC50,[1]; [6],154 nM
same,EC50 T75-25 (in words),[1],N.S
same,Effect on spontaneous calcium transient at 10 nM,"[1]; hiPSC-CMs, 10 nM",prolonged the calcium transient
same,Effect on spontaneous calcium transient at 100 nM,"[1]; hiPSC-CMs, 100 nM",reduction in the intensity of the transient and prolongation of the late phase of the decay
same,Effect on spontaneous calcium transient at higher concentrations,"[1]; hiPSC-CMs, concentrations above 100 nM",completely inhibited the occurrence of spontaneous transients
CC(=O)Oc1ccccc1C(=O)O [Aspirin],EC50 Decay (in words),[1],N.S.
same,EC50 FWHM (in words),[1],N.S.
same,EC50 Rise Time (in words),[1],N.S.
same,EC50 T75-25 (in words),[1],N.S.
same,Effect on spontaneous calcium transient (in words),[1]; hiPSC-CMs,minimal effect only at the highest concentrations
CC(C)NCC(O)c1ccc(NS(C)(=O)=O)cc1 (stereo not drawn) [Sotalol],Reported EC50/IC50,"hERG; ref Peng, 2010",268µM PC-cc
same,EC50,[1]; [4],85700 nM
same,EC50,[1]; [5],86300 nM
same,EC50,[1]; [6],89100 nM
same,EC50 T75-25 (in words),[1],None
